According to patent publication US20210085640A1, “ACYLATED CATECHIN POLYPHENOLS AND METHODS OF THEIR USE FOR THE TREATMENT OF CANCER” (Flagship Pioneering Innovations V, Inc., priority 2018, published 2021):
pIC50: −log10 of the molar value.

Columns and labels:
Type in all cases: cell-based
[1] = system: MCF7 breast cancer cells; assay: Cancer cell survival (CellTiter-Glo), MCF7; conditions: Homo sapiens, 72 h
Summary of the method: (§1)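 Cells were seeded at 4×10^3 cells/well and left overnight at 37 C, 5% CO2, then exposed in triplicate to nine compound concentrations for 72 h. Dosing solutions were made at 10× final (1 μM-10 mM fatty acids, 100 nM-1 mM other compounds). CellTiter-Glo luminescence, normalised to untreated and medium-only wells, gave IC50.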

[2] = system: PC-3 prostate cancer cells; assay: Cancer cell survival (CellTiter-Glo), PC-3; conditions: Homo sapiens, PC-3 cells, 72 h
Summary of the method: as §1

[3] = system: A549 lung cancer cells; assay: Cancer cell survival (CellTiter-Glo), A549; conditions: Homo sapiens, 72 h
Summary of the method: as §1

[4] = system: Daudi lymphoma cancer cells; assay: Cancer cell survival (CellTiter-Glo), Daudi; conditions: Homo sapiens, 72 h
Summary of the method: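 Daudi cells (4×10^3/well) were exposed for 72 h at 37 °C to nine concentrations of compound, added as 10× solutions spanning 1 μM–10 mM (fatty acids) or 100 nM–1 mM (others). CellTiter-Glo luminescence gave % survival versus untreated, medium-blank corrected; IC50 derived.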

[5] = system: A-431 skin cancer cells; assay: Cancer cell survival (CellTiter-Glo), A-431; conditions: Homo sapiens, A-431 cells, 72 h
Summary of the method: as §1

[6] = system: T24 bladder cancer cells; assay: Cancer cell survival (CellTiter-Glo), T24; conditions: Homo sapiens
Summary of the method: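 T24 cells seeded at 4×10^3 cells/well overnight, then exposed 72 h at 37 C, 5% CO2 to nine concentrations in triplicate. Survival measured by CellTiter-Glo luminescence relative to untreated and medium controls; IC50 derived.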

[7] = system: AGS stomach cancer cells; assay: Cancer cell survival (CellTiter-Glo), AGS
Summary of the method: as §1

[8] = system: HCT 116 colorectal cancer cells; assay: Cancer cell survival (CellTiter-Glo), HCT 116; conditions: Homo sapiens, HCT 116 cells, 72 h
Summary of the method: as §1

[9] = 317 μM, read-out: Cell survival at given concentration
[10] = 1 mM, read-out: Cell survival at given concentration
[11] = 3 mM, read-out: Cell survival at given concentration
[12] = 10 mM, read-out: Cell survival at given concentration

CCCC(=O)O [butyrate]
viability at 1 µM ([1]; 1 μM, Table 5.2, read-out: Cell survival at given concentration): 101% | viability at 3 µM ([1]; 3 μM, Table 5.2, read-out: Cell survival at given concentration): 103% | viability at 10 µM ([1]; 10 μM, Table 5.2, read-out: Cell survival at given concentration): 102% | viability at 32 µM ([1]; 32 μM, Table 5.2, read-out: Cell survival at given concentration): 100% | viability at 100 µM ([1]; 100 μM, Table 5.2, read-out: Cell survival at given concentration): 104% | viability at 317 µM [1, 9]: 98% | viability at 1000 µM [1, 10]: 82% | viability at 3000 µM [1, 11]: 54% | viability at 10000 µM [1, 12]: 24% | pIC50 ([1]; Table 5.2): 2.44 | viability at 1 µM ([2]; 1 μM, Table 8.2, read-out: Cell survival at given concentration): 100% | viability at 3 µM ([2]; 3 μM, Table 8.2, read-out: Cell survival at given concentration): 99% | viability at 10 µM ([2]; 10 μM, Table 8.2, read-out: Cell survival at given concentration): 100% | viability at 32 µM ([2]; 32 μM, Table 8.2, read-out: Cell survival at given concentration): 100% | viability at 100 µM ([2]; 100 μM, Table 8.2, read-out: Cell survival at given concentration): 98% | viability at 317 µM [2, 9]: 93% | viability at 1000 µM [2, 10]: 82% | viability at 3000 µM [2, 11]: 66% | viability at 10000 µM [2, 12]: 40% | pIC50 ([2]; Table 8.2): 2.19 | viability at 1 µM ([3]; 1 μM, Table 7.2, read-out: Cell survival at given concentration): 95% | viability at 3 µM ([3]; 3 μM, Table 7.2, read-out: Cell survival at given concentration): 96% | viability at 10 µM ([3]; 10 μM, Table 7.2, read-out: Cell survival at given concentration): 99% | viability at 32 µM ([3]; 32 μM, Table 7.2, read-out: Cell survival at given concentration): 100% | viability at 100 µM ([3]; 100 μM, Table 7.2, read-out: Cell survival at given concentration): 102% | viability at 317 µM [3, 9]: 101% | viability at 1000 µM [3, 10]: 90% | viability at 3000 µM [3, 11]: 67% | viability at 10000 µM [3, 12]: 27% | pIC50 ([3]; Table 7.2): 2.30 | viability at 1 µM ([4]; 1 μM, Table 4.2, read-out: Cell survival at given concentration): 101% | viability at 3 µM ([4]; 3 μM, Table 4.2, read-out: Cell survival at given concentration): 99% | viability at 10 µM ([4]; 10 μM, Table 4.2, read-out: Cell survival at given concentration): 100% | viability at 32 µM ([4]; 32 μM, Table 4.2, read-out: Cell survival at given concentration): 100% | viability at 100 µM ([4]; 100 μM, Table 4.2, read-out: Cell survival at given concentration): 99% | viability at 317 µM [4, 9]: 87% | viability at 1000 µM [4, 10]: 46% | viability at 3000 µM [4, 11]: 19% | viability at 10000 µM [4, 12]: 13% | pIC50 ([4]; Table 4.2): 3.04 | viability at 1 µM ([5]; 1 μM, Table 9.2, read-out: Cell survival at given concentration): 103% | viability at 3 µM ([5]; 3 μM, Table 9.2, read-out: Cell survival at given concentration): 102% | viability at 10 µM ([5]; 10 μM, Table 9.2, read-out: Cell survival at given concentration): 102% | viability at 32 µM ([5]; 32 μM, Table 9.2, read-out: Cell survival at given concentration): 103% | viability at 100 µM ([5]; 100 μM, Table 9.2, read-out: Cell survival at given concentration): 99% | viability at 317 µM [5, 9]: 96% | viability at 1000 µM [5, 10]: 85% | viability at 3000 µM [5, 11]: 67% | viability at 10000 µM [5, 12]: 37% | pIC50 ([5]; Table 9.2): 2.20 | viability at 1 µM ([6]; T-24, 1 μM, 72 h, Table 3.2, read-out: Cell survival at given concentration): 98% | viability at 3 µM ([6]; T-24, 3 μM, 72 h, Table 3.2, read-out: Cell survival at given concentration): 100% | viability at 10 µM ([6]; T-24, 10 μM, 72 h, Table 3.2, read-out: Cell survival at given concentration): 105% | viability at 32 µM ([6]; T-24, 32 μM, 72 h, Table 3.2, read-out: Cell survival at given concentration): 99% | viability at 100 µM ([6]; T-24, 100 μM, 72 h, Table 3.2, read-out: Cell survival at given concentration): 97% | viability at 317 µM ([6]; T-24, 317 μM, 72 h, read-out: Cell survival at given concentration): 90% | viability at 1000 µM ([6]; T-24, 1 mM, 72 h, read-out: Cell survival at given concentration): 84% | viability at 3000 µM ([6]; T-24, 3 mM, 72 h, read-out: Cell survival at given concentration): 60% | viability at 10000 µM ([6]; T-24, 10 mM, 72 h, read-out: Cell survival at given concentration): 27% | pIC50 ([6]; T-24, 72 h, Table 3.2, read-out: IC50): 2.33 | viability at 1 µM ([7]; 72 h, 1 μM, Table 10.2, read-out: Cell survival at given concentration): 100% | viability at 3 µM ([7]; 72 h, 3 μM, Table 10.2, read-out: Cell survival at given concentration): 100% | viability at 10 µM ([7]; 72 h, 10 μM, Table 10.2, read-out: Cell survival at given concentration): 102% | viability at 32 µM ([7]; 72 h, 32 μM, Table 10.2, read-out: Cell survival at given concentration): 101% | viability at 100 µM ([7]; 72 h, 100 μM, Table 10.2, read-out: Cell survival at given concentration): 104% | viability at 317 µM ([7]; 72 h, 317 μM, read-out: Cell survival at given concentration): 105% | viability at 1000 µM ([7]; 72 h, 1 mM, read-out: Cell survival at given concentration): 91% | viability at 3000 µM ([7]; 72 h, 3 mM, read-out: Cell survival at given concentration): 65% | viability at 10000 µM ([7]; 72 h, 10 mM, read-out: Cell survival at given concentration): 11% | pIC50 ([7]; Table 10.2): 2.35 | viability at 1 µM ([8]; 1 μM, Table 6.2, read-out: Cell survival at given concentration): 98% | viability at 3 µM ([8]; 3 μM, Table 6.2, read-out: Cell survival at given concentration): 99% | viability at 10 µM ([8]; 10 μM, Table 6.2, read-out: Cell survival at given concentration): 102% | viability at 32 µM ([8]; 32 μM, Table 6.2, read-out: Cell survival at given concentration): 101% | viability at 100 µM ([8]; 100 μM, Table 6.2, read-out: Cell survival at given concentration): 97% | viability at 317 µM [8, 9]: 92% | viability at 1000 µM [8, 10]: 66% | viability at 3000 µM [8, 11]: 18% | viability at 10000 µM [8, 12]: 1% | pIC50 ([8]; Table 6.2): 2.84
